Experiments:
5-lipoxygenase = molecular target: T1, 5-lipoxygenase (Cavia porcellus, UniProt A0A286X958); test: 5-Lipoxygenase inhibitory activity (conversion of 14C-arachidonic acid to 5-HETE) in guinea pig peritoneal exudate cells; type: cell-based, guinea pig (Hartley strain); details: read-out: inhibition ratio (%) of 5-lipoxygenase activity; for inhibition at 0.3 µM: concentration 3 × 10^-7 M; for inhibition at 1 µM: concentration 10^-6 M; for inhibition at 0.1 µM: concentration 10^-7 M
T1 construct: endogenous in cells; host or cells: guinea pig (Hartley strain) casein-elicited peritoneal exudate cells, intact cell suspension
T1 sequence (A0A286X958 1-674): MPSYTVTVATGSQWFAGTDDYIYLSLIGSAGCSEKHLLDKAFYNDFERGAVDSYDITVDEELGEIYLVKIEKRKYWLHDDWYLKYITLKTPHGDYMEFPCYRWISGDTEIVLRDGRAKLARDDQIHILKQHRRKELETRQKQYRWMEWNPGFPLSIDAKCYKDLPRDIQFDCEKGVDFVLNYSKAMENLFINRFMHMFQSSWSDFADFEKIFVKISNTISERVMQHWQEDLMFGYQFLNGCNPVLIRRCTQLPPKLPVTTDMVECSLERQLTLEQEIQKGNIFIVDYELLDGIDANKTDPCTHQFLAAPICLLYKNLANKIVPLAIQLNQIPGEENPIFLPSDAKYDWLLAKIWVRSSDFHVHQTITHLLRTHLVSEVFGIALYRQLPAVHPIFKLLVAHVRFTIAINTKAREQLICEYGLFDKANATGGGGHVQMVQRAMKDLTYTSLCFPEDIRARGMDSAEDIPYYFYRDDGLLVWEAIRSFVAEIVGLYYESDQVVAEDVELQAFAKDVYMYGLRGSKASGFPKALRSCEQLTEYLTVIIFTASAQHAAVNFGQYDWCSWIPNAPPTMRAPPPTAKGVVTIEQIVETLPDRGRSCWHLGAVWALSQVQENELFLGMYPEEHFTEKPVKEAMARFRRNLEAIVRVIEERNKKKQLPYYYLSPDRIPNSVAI
Experimental: 5-Lipoxygenase inhibitory activity of the present compounds was determined by a method according to procedures described in "J. Biol. Chem., Vol. 256, pages 4156-4159, (1981, Ibid. Vol. 258, pages 5754-5758 (1983).
(1) Preparation of Test Cells
A guinea pig (Hartley strain) (500-650 g body weight) was intraperitoneally administered with 2%-casein solution in 3/50 the volume of body weight. 14 Hours after the administration, the animal was sacrificed by bleeding and the peritoneal cavity was washed with Dulbecco's phosphate buffered saline (PBS) containing 3 U/ml of heparin and the exudate cells were harvested. The sample of cells was washed twice with Dulbecco's PBS (-), then the cells were suspended in Dulbecco's PBS (-), containing 1 mM of calcium chloride and 5.5 mM of glucose, so as to make a suspension having the concentration of 2.5×10^7 cells/ml.
To 0.2 ml of the above-mentioned cell suspension was added 10^-5 M of Indomethacine, and incubated at 30° C. for 2 minutes. Each of the appropriate concentrations of test compounds was added to the suspension respectively, further incubated for 2 minutes. Next, 10 μm of Ionophore A23187 (manufactured by Calbiochem-Behring, San Diego, Calif., U. S. A) was added to the suspension, further, 10 μm of ^14 C-arachidonic acid (manufactured by Amersham Japan, Ltd., Tokyo, Japan) was added and initiated the reaction. 3 Minutes after the initiation of the reaction, 0.1 ml of 0.2M-citric acid was added so as to terminate the reaction. 1.2 Milliliters of ethyl acetate was added to the reaction mixture and shaked for 5 minutes. The reaction mixture was centrifuged at 3,000 rpm for 5 minutes so as to separate the organic layer from the aqueous layer. 1 Milliliter of the organic layer (the upper layer) was dehydrated by passing through a mini-column packed with anhydrous sodium sulfate. The dehydrated organic layer was dried under nitrogen gas stream. The residue obtained was dissolved in ethyl acetate, and the total amount of the ethyl acetate solution was spotted onto thin layer chromochromatography (TCL) plate (Art. 11845 manufactured by E. Merck A. G.). The TCL was carried out with a mixed solvent of diethyl ether:petroleum:ether:acetic acid (50:50:1 volume/volume), then the radioactive metabolites on the plate were detected by using "Ultrafilm ^3 H" (a trademark for a X-ray film, manufactured by LKB Co.). Each fractions corresponding to the metabolites was scraped in to a scintillation vial, and 5 ml of "Scintilator ACS-II" (manufactured by Amersham Japan, Ltd.), was added then the radio-activity was determined by means of a liquid scintillation counter.

[1] = system: histamine release on anaphylaxis in abdominal cavity; test: Histamine releasing inhibition test on anaphylaxis in abdominal cavity of rats; type: in vivo, rat (Sprague-Dawley strain); details: oral, 3 hours before anaphylaxis; dose not given
Experimental: SRS-A and histamine releasing inhibition test on anaphylaxis in abdominal cavity of rats.
Male or female rats (Sprague-Dawley strain, delivered from Charles River, Japan Ltd., Tokyo) of 6-7 week age were used as the test animals. The test animals were devided into a group consisting of 6 animals in one group depending on their body weight. The animals were fasted overnight. The test was conducted by a method according to P. T. Orange et al.: "J. Immunol., Vol. 105", pages 1087-1095 (1970).
1 Milliliter each of twofold diluted anti-ovalbumin serm of rat was intraperitoneally injected to each of the test animal so as to have the rat sensitized. 2 Hours after the sensitization, 5 ml of Tyrode's solution containing 2 mg of ovalbumin and 250 micrograms of heparin sodium was intraperitoneally administered to the test animal to cause anaphylaxis. 5 Minutes after, the test animal was stunned by the blow on the head and was exsanguinated and killed by cervical incision. Additional 5 minutes later, the abdominal fluid was collected from the opening of the abdomen. The fluid collected was centrifuged at 4° C., first at 800 rpm, then at 2,500 rpm and the supernatant was collected, and stored at -80° C. until the bioassay was conducted. […]
The amount of SRS-A and histamine contained in the collected abdominal fluid was measured by a method similar to that employed in Pharmacological test-2.
Bio-assay of the collected abdominal fluid was conducted by using ileum of guinea pig which was treated with atropine. […] The isotonic contraction of the piece of the ileum was measured at 0.5 g of load by using an isotonic transducer "TD-112S" (manufactured by Nihon Koden Co., Ltd.). The measurements were recorded on an ink-writing recorder.
After stabilization of the contraction reaction due to histmine, the amount of histamine was measured quantitatively by observing the contraction of the piece of the ileum shown within 30 seconds after addition of 0.05-0.4 ml of the abdominal fluid. […]

SMILES | inhibition at 0.3 µM (5-lipoxygenase) [%] | inhibition at 1 µM (5-lipoxygenase) [%] | inhibition at 0.1 µM (5-lipoxygenase) [%] | Inhibitory rate (%) Histamine [1] [%]
COC1=CC(=O)C(OC)=C(CCCCCC#CCCCCCC2=C(OC)C(=O)C=C(OC)C2=O)C1=O [Test Compound No. 16, 2,2'-(6-Dodecynylene)bis(3,6-dimethoxy-1,4-benzoquinone)] | 84 | 87 | 61 | 8.0
COC1=CC(=O)C(OC)=C(CCCCCC2=C(OC)C(=O)C=C(OC)C2=O)C1=O [Test Compound No. 9, 2,2'-Pentamethylenebis(3,6-dimethoxy-1,4-benzoquinone)] | 55 | 74 | 38 | -3.6
COC1=CC(=O)C(OC)=C(CCCCCCCCCC2=C(OC)C(=O)C=C(OC)C2=O)C1=O [Test Compound No. 13, 2,2'-Nonamethylenebis(3,6-dimethoxy-1,4-benzoquinone)] | 72 | 91 | 43 | 10.9

Reference: patent publication US5220042A, “1,4-benzoquinone derivatives and benzene derivatives, and process for preparing the same” (priority 1984, dated 1993)
